Here are results for 40 molecules from patent publication US8846928B2 (Portola Pharmaceuticals, Inc., priority 2010, dated 2014).

The IC50 is the concentration at which inhibition is half-maximal.

SMILES strings stand for the structures.

This assay addresses T1, full length active recombinant SYK enzyme (Homo sapiens, UniProt P43405).
T1 construct: full length active recombinant SYK enzyme (Millipore, Calif.); purchased Millipore
Put plainly: Inhibition of Syk tyrosine phosphorylation activity (LANCE TR-FRET kinase assay). The format is biochemical.
On to `NC(=O)c1cc(F)c(N[C@@H]2CCCC[C@@H]2N)nc1Nc1cncc(F)c1` [Example 89, 6-((1R,2S)-2-aminocyclohexylamino)-5-fluoro-2-(5-fluoropyridin-3-ylamino)nicotinamide], for which the IC50 lay in the range of 1 to 10 nM.
The figure for `COC[C@H](CN)Nc1nc(Nc2cccc(-n3nccn3)c2)c(C(N)=O)cc1F` [Example 91, (S)-2-(3-(2H-1,2,3-triazol-2-yl)phenylamino)-6-(1-amino-3-methoxypropan-2-ylamino)-5-fluoronicotinamide] is 1 to 10 nM; for `CC[C@H](CN)Nc1nc(Nc2cccc(-c3ncccn3)c2)c(C(N)=O)cc1F` [Example 92, (R)-6-(1-aminobutan-2-ylamino)-5-fluoro-2-(3-(pyrimidin-2-yl)phenylamino)nicotinamide] it is 10 to 100 nM.
`CC[C@H](CN)Nc1nc(Nc2ccc3ncsc3c2)c(C(N)=O)cc1F` [Example 93, (R)-6-(1-aminobutan-2-ylamino)-2-(benzo[d]thiazol-6-ylamino)-5-fluoronicotinamide]: the IC50 lay in the range of 1 to 10 nM.
The figure for `CC[C@H](CN)Nc1nc(Nc2ccc3ncccc3c2)c(C(N)=O)cc1F` [Example 94, (R)-6-(1-aminobutan-2-ylamino)-5-fluoro-2-(quinolin-6-ylamino)nicotinamide] is 1 to 10 nM.
The figure for `CC[C@H](CN)Nc1nc(Nc2cncc(C)c2)c(C(N)=O)cc1F` [Example 95, (R)-6-(1-aminobutan-2-ylamino)-5-fluoro-2-(5-methylpyridin-3-ylamino)nicotinamide] is 10 to 100 nM.
The same measure for `CC[C@H](CN)Nc1nc(Nc2cncc(OC)c2)c(C(N)=O)cc1F` [Example 96, (R)-6-(1-aminobutan-2-ylamino)-5-fluoro-2-(5-methoxypyridin-3-ylamino)nicotinamide]: 10 to 100 nM; for `CC[C@@H](Nc1nc(Nc2ccc3cccnc3c2)c(C(N)=O)cc1F)C(N)=O` [Example 97, (R)-6-(1-amino-1-oxobutan-2-ylamino)-5-fluoro-2-(quinolin-7-ylamino)nicotinamide]: 10 to 100 nM; for `CC[C@@H](Nc1nc(Nc2ccc3ccncc3c2)c(C(N)=O)cc1F)C(N)=O` [Example 98, (R)-6-(1-amino-1-oxobutan-2-ylamino)-5-fluoro-2-(isoquinolin-7-ylamino)nicotinamide]: 10 to 100 nM.
Consider `CC[C@@H](Nc1nc(Nc2ccc3cnccc3c2)c(C(N)=O)cc1F)C(N)=O` [Example 99], for which the concentration for half-maximal inhibition (IC50) was in the range of 10 to 100 nM.
The same measure for `CC[C@@H](Nc1nc(Nc2ccc3ncccc3c2)c(C(N)=O)cc1F)C(N)=O` [Example 100]: 10 to 100 nM; for `Cc1cccc(Nc2nc(N[C@@H]3CCCC[C@@H]3N)ccc2C(N)=O)c1` [Example 102, 6-((1R,2S)-2-aminocyclohexylamino)-2-(m-tolylamino)nicotinamide]: 1 to 10 nM.
The figure for `COC[C@H](N)CNc1ccc(C(N)=O)c(Nc2cccc(C)c2)n1` [Example 103, (R)-2-(m-toluidino)-6-(2-amino-3-methoxypropylamino)nicotinamide] is 100 to 1000 nM; for `Cc1cccc(Nc2nc(N[C@H](C)C(N)=O)ccc2C(N)=O)c1` [Example 104, (R)-2-(m-toluidino)-6-(1-amino-1-oxopropan-2-ylamino)nicotinamide] it is 100 to 1000 nM; for `Cc1cccc(Nc2nc(N[C@H](CC(C)C)C(N)=O)ccc2C(N)=O)c1` [Example 105, (R)-6-(1-amino-4-methyl-1-oxopentan-2-ylamino)-2-(m-tolylamino)nicotinamide] it is 100 to 1000 nM.
The same measure for `N#Cc1cc(C(N)=O)c(Nc2cccc(-n3nccn3)c2)nc1N[C@@H]1CCCC[C@@H]1N` [Example 106, 2-(3-(2H-1,2,3-triazol-2-yl)phenylamino)-6-((1R,2S)-2-aminocyclohexylamino)-5-cyanonicotinamide]: 1 to 10 nM; for `Cc1cccc(Nc2nc(N[C@@H]3CCCC[C@@H]3N)c(C#N)cc2C(N)=O)c1` [Example 107, 6-((1R,2S)-2-aminocyclohexylamino)-5-cyano 2-(m-tolylamino)nicotinamide]: 1 to 10 nM.
In the case of `C[C@H](N)CNc1nc(Nc2cccc(-n3nccn3)c2)c(C(N)=O)cc1C#N` [Example 108, (S)-2-(3-(2H-1,2,3-triazol-2-yl)phenylamino)-6-(2-aminopropylamino)-5-cyanonicotinamide], the concentration for half-maximal inhibition (IC50) fell in the range of 10 to 100 nM.
The same measure for `C[C@H](CN)Nc1nc(Nc2cccc(-n3nccn3)c2)c(C(N)=O)cc1C#N` [Example 109, (R)-2-(3-(2H-1,2,3-triazol-2-yl)phenylamino)-6-(1-aminopropan-2-ylamino)-5-cyanonicotinamide]: 10 to 100 nM; for `CC(C)C[C@H](CN)Nc1nc(Nc2cccc(-n3nccn3)c2)c(C(N)=O)cc1C#N` [Example 110, (R)-2-(3-(2H-1,2,3-triazol-2-yl)phenylamino)-6-(1-amino-4-methylpentan-2-ylamino)-5-cyanonicotinamide]: 1 to 10 nM; for `N#Cc1cc(C(N)=O)c(Nc2cccc(-n3nccn3)c2)nc1NC[C@@H](N)C1CC1` [Example 111, (S)-2-(3-(2H-1,2,3-triazol-2-yl)phenylamino)-6-(2-amino-2-cyclopropylethylamino)-5-cyanonicotinamide]: 100 to 1000 nM.
For the molecule `C[C@H](CN)Nc1nc(Nc2cccc3nn(C)cc23)c(C(N)=O)cc1C#N` [Example 112, (R)-6-(1-aminopropan-2-ylamino)-5-cyano-2-(2-methyl-2H-indazol-4-ylamino)nicotinamide], the IC50 lay in the range of 10 to 100 nM.
As for `N#Cc1cc(C(N)=O)c(Nc2ccc3ncccc3c2)nc1N[C@@H]1CCCC[C@@H]1N` [Example 113, 6-((1R,2S)-2-aminocyclohexylamino)-5-cyano-2-(quinolin-6-ylamino)nicotinamide], the concentration for half-maximal inhibition (IC50) was in the range of 1 to 10 nM.
The figure for `C[C@H](CN)Nc1nc(Nc2ccc3ncccc3c2)c(C(N)=O)cc1C#N` [Example 114, (R)-6-(1-aminopropan-2-ylamino)-5-cyano-2-(quinolin-6-ylamino)nicotinamide] is 10 to 100 nM; for `Cn1cc2c(Nc3nc(N[C@@H]4CCCC[C@@H]4N)c(C#N)cc3C(N)=O)cccc2n1` [Example 115, 6-((1R,2S)-2-aminocyclohexylamino)-5-cyano-2-(2-methyl-2H-indazol-4-ylamino)nicotinamide] it is 1 to 10 nM; for `NC(=O)c1cc(C(N)=O)c(N[C@@H]2CCCC[C@@H]2N)nc1Nc1cccc(-n2nccn2)c1` [Example 116, 2-(3-(2H-1,2,3-triazol-2-yl)phenylamino)-6-((1R,2S)-2-aminocyclohexylamino)pyridine-3,5-dicarboxamide] it is 100 to 1000 nM.
The same measure for `N#Cc1cc(C(N)=O)c(Nc2ccc3[nH]ncc3c2)nc1N[C@@H]1CCCC[C@@H]1N` [Example 117]: 1 to 10 nM; for `N#Cc1cc(C(N)=O)c(Nc2ccc3ncsc3c2)nc1N[C@@H]1CCCC[C@@H]1N` [Example 118, 6-((1R,2S)-2-aminocyclohexylamino)-2-(benzo[d]thiazol-6-ylamino)-5-cyanonicotinamide]: 1 to 10 nM; for `N#Cc1cc(C(N)=O)c(Nc2ccc3ncsc3c2)nc1NC[C@@H](N)C1CC1` [Example 119, (S)-6-(2-amino-2-cyclopropylethylamino)-2-(benzo[d]thiazol-6-ylamino)-5-cyanonicotinamide]: 10 to 100 nM.
The figure for `Cn1ncc2c(Nc3nc(N[C@@H]4CCCC[C@@H]4N)c(C#N)cc3C(N)=O)cccc21` [Example 120, 6-((1R,2S)-2-aminocyclohexylamino)-5-cyano-2-(1-methyl-1H-indazol-4-ylamino)nicotinamide] is 1 to 10 nM; for `N#Cc1cc(C(N)=O)c(Nc2ccc(-n3cccn3)cc2)nc1N[C@@H]1CCCC[C@@H]1N` [Example 121, 2-(4-(1H-pyrazol-1-yephenylamino)-6-(1R,2S)-2-aminocyclohexylamino)-5-cyanonicotinamide] it is 10 to 100 nM; for `CC(C)C[C@H](CN)Nc1nc(Nc2ccc3ncccc3c2)c(C(N)=O)cc1C#N` [Example 122, (R)-6-(1-amino-4-methylpentan-2-ylamino)-5-cyano-2-(quinolin-6-ylamino)nicotinamide] it is 1 to 10 nM.
Consider `CC(C)C[C@H](CN)Nc1nc(Nc2ccc3ncsc3c2)c(C(N)=O)cc1C#N` [Example 123, (R)-6-(1-amino-4-methylpentan-2-ylamino)-2-(benzo[d]thiazol-6-ylamino)-5-cyanonicotinamide], for which the concentration for half-maximal inhibition (IC50) lay within 1 to 10 nM.
The figure for `CC(C)C[C@@H](Nc1nc(Nc2ccc3ncccc3c2)c(C(N)=O)cc1C#N)C(N)=O` [Example 124, (R)-6-(1-amino-4-methyl-1-oxopentan-2-ylamino)-2-(quinolin-6-ylamino)-5-cyanonicotinamide] is 10 to 100 nM.
The same measure for `CC(C)C[C@@H](Nc1nc(Nc2cccc(-n3nccn3)c2)c(C(N)=O)cc1C#N)C(N)=O` [Example 125, (R)-2-(3-(2H-1,2,3-triazol-2-yl)phenylamino)-6-(1-amino-4-methyl-1-oxopentan-2-ylamino)-5-cyanonicotinamide]: 100 to 1000 nM.
The same measure for `CC(C)[C@@H](Nc1nc(Nc2cccc(-n3nccn3)c2)c(C(N)=O)cc1C#N)C(N)=O` [Example 126, (R)-2-(3-(2H-1,2,3-triazol-2-yl)phenylamino)-6-(1-amino-3-methyl-1-oxobutan-2-ylamino)-5-cyanonicotinamide]: more than 1000 nM.
As for `CC(C)[C@H](CN)Nc1nc(Nc2ccc3ncccc3c2)c(C(N)=O)cc1C#N` [Example 128, (R)-6-(1-amino-3-methylbuttan-2-ylamino)-5-cyano-2-(quinolin-6-ylamino)nicotinamide], the 50% inhibitory concentration (IC50) fell in the range of 1 to 10 nM.
The figure for `N#Cc1cc(C(N)=O)c(Nc2cnc3ccccc3c2)nc1N[C@@H]1CCCC[C@@H]1N` [Example 129] is 1 to 10 nM; for `N#Cc1cc(C(N)=O)c(Nc2cccc(-c3ncccn3)c2)nc1N[C@@H]1CCCC[C@@H]1N` [Example 130] it is 1 to 10 nM.
The same measure for `N#Cc1cc(C(N)=O)c(Nc2cccc(-c3ccccn3)c2)nc1N[C@@H]1CCCC[C@@H]1N` [Example 131, 6-((1R,2S)-2-aminocyclohexylamino)-5-cyano-2-(3-(pyridin-2-yl)phenylamino)nicotinamide]: 1 to 10 nM.
